The assay concerns Streptococcus pyogenes (ATCC #97-03 14289). As to the kind of experiment: Anti-microbial screen (growth inhibition, OD 570 nm). Format: cell-based. As to conditions: ATCC97, compounds assayed at 170 μg/ml, growth in Todd Hewitt Broth read at 570 nm at 4 hrs, read-out: % Inhibition. The method, then:
Streptococcus pyogenes (ATCC #97-03 14289) are grown in Todd Hewitt Broth (THB) (Difco Laboratories #0492-17-6) overnight until they reach an optical density of (OD=0.636@570 nm) by reading 0.1 ml in a 96 well microtiter plate in a Molecular Devices Thermomax. This preparation is kept frozen as stocks in 30% v/v glycerol in 1.5 ml aliquots at −70° C. until use. Prior to screening, 1.5 ml aliquots are thawed and diluted into 50 ml THB. 200 μl of this dilution is added to 92 wells of microtiter plate. To three wells THB (200 μl) is added to serve as a blank and a sterility control. Test compounds in DMSO and appropriate concentrations of DMSO are added to Growth/Solvent Controls at 0 time. Plates are read at 0 time at 570 nm in the Molecular Devices plate reader to obtain compounds correction factors for insoluble or colored compounds. Plates are read again at 4 hrs.
Compounds are assayed at a concentration of 170 μg/ml. Percent inhibition for each compound is calculated using the following formulae:
Color correct=(O.D. 0 hr −Blank 0 hr)—(Solvent Control 0 hr−Blank 0 hr)
% Inhibition=100−(O.D. test compound 4 hr−Blank 4 hr−color correct) divided by (O.D. growth/solvent control 4 hr−Blank 4 hr)
Usually inhibition stands for how much of the control response was suppressed. `CSc1ccccc1C(=O)Nc1ccc2c(c1)C(=O)N(Cc1ccc(C(=O)N(CCN(C)C)CC(N)=O)cc1)C(c1ccc(C(F)(F)F)cc1)C2` (centres unmarked): the inhibition at 170 µg/mL is 98.3%.
Take `CN(C)CCN(CC(N)=O)C(=O)CCN1C(=O)c2cc(NC(=O)CC3CCCC3)ccc2CC1c1ccc(C(C)(C)C)cc1` (centres unmarked): the inhibition at 170 µg/mL was found to be 99.5%.
The same measure for `CCCCCCCC(=O)Nc1ccc2c(c1)C(=O)N(CCC(=O)N(CCN(C)C)CC(N)=O)C(c1ccc(F)c(F)c1)C2` (centres unmarked): 98.4%.
Under `Cc1ccc(C2Cc3ccc(NC(=O)COc4ccc5ccccc5c4)cc3C(=O)N2CCC(=O)N(CCN(C)C)CC(N)=O)cc1` (centres unmarked) stands 99.2%; under `CN(C)CCCOc1ccc(C2Cc3ccc(NC(=O)CCC4CCCCC4)cc3C(=O)N2CCC(=O)N(CCN(C)C)CC(N)=O)cc1` (centres unmarked), 99%.
The same measure for `Cc1ccc2oc(C(=O)Nc3ccc4c(c3)C(=O)N(CCC(=O)N(CC(N)=O)Cc3cccc(C(F)(F)F)c3)C(c3ccc(F)c(F)c3)C4)cc(=O)c2c1` (centres unmarked): 99.2%; for `CN(C)CCCOc1ccc(C2Cc3ccc(NC(=O)CC4CCCC4)cc3C(=O)N2Cc2ccc(C(=O)N(CC(N)=O)Cc3ccccc3)cc2)cc1` (centres unmarked): 99.2%; for `CN(C)CCN(CC(N)=O)C(=O)c1ccc(CN2C(=O)c3cc(NC(=O)CC4CC5CCC4C5)ccc3CC2c2cccc3ccccc23)cc1` (centres unmarked): 99.5%.
For `CN(C)CCN(CC(N)=O)C(=O)CCN1C(=O)c2cc(NC(=O)c3cc(C(F)(F)F)cc(C(F)(F)F)c3)ccc2CC1c1ccc(F)c(F)c1` (centres unmarked), the inhibition at 170 µg/mL is 99.2%.
Regarding `CN(C)CCN(CC(N)=O)C(=O)CCN1C(=O)c2cc(NC(=O)c3ccccc3F)ccc2CC1c1ccc(C(C)(C)C)cc1` (centres unmarked), the inhibition at 170 µg/mL turned out to be 98.2%.
With `COc1ccc(Br)c(C(=O)Nc2ccc3c(c2)C(=O)N(Cc2ccc(C(=O)N(CC(N)=O)Cc4cccc(C(F)(F)F)c4)cc2)C(c2ccc(OCCCN(C)C)cc2)C3)c1` (centres unmarked), the inhibition at 170 µg/mL came out at 99.4%.
Under `CN(C)CCCOc1ccc(C2Cc3ccc(NC(=O)COc4ccc5ccccc5c4)cc3C(=O)N2CCC(=O)N(CC(N)=O)Cc2cccc(C(F)(F)F)c2)cc1` (centres unmarked) stands 99.6%; under `CN(C)CCN(CC(N)=O)C(=O)CCN1C(=O)c2cc(NC(=O)c3ccco3)ccc2CC1c1cccc2ccccc12` (centres unmarked), 98.2%.
The same measure for `CN(C)CCCOc1ccc(C2Cc3ccc(NC(=O)Cc4cccc(C(F)(F)F)c4)cc3C(=O)N2CCC(=O)N(CCN(C)C)CC(N)=O)cc1` (centres unmarked): 99.8%; for `Cc1cc(C)c(C(=O)C(=O)Nc2ccc3c(c2)C(=O)N(CCC(=O)N(CCN(C)C)CC(N)=O)C(c2ccc(C(F)(F)F)cc2)C3)c(C)c1` (centres unmarked): 98.9%.
Under `CCCCCC/C=C/C(=O)Nc1ccc2c(c1)C(=O)N(CCC(=O)N(CCN(C)C)CC(N)=O)C(c1ccccc1)C2` (centres unmarked) stands 99.8%.
Consider `CSc1ccc(C2Cc3ccc(NC(=O)CC(C)CC(C)(C)C)cc3C(=O)N2Cc2ccc(C(=O)N(CCN(C)C)CC(N)=O)cc2)cc1` (centres unmarked), for which the inhibition at 170 µg/mL was found to be 99.5%.
The same measure for `CCCCCCCC(=O)Nc1ccc2c(c1)C(=O)N(CCC(=O)N(CCC)CC(N)=O)C(c1ccc(OCCCN(C)C)cc1)C2` (centres unmarked): 98.8%; for `CN(C)CCN(CC(N)=O)C(=O)CCN1C(=O)c2cc(NC(=O)CC3CC4CCC3C4)ccc2CC1c1ccc2ccccc2n1` (centres unmarked): 98.5%; for `CN(C)CCN(CC(N)=O)C(=O)c1ccc(CN2C(=O)c3cc(NC(=O)c4cccc(C(F)(F)F)c4F)ccc3CC2c2cccc(C#N)c2)cc1` (centres unmarked): 99.5%.
Under `CCCCCC/C=C/C(=O)Nc1ccc2c(c1)C(=O)N(CCC(=O)N(CCN(C)C)CC(N)=O)C(c1ccc(SC)cc1)C2` (centres unmarked) stands 99.9%.
The same measure for `NC(=O)CN(Cc1cccc(C(F)(F)F)c1)C(=O)CCN1C(=O)c2cc(NC(=O)CC3CC4CCC3C4)ccc2CC1c1cccnc1` (centres unmarked): 99.2%; for `CN(C)CCCOc1ccc(C2Cc3ccc(NC(=O)c4ccc(I)cc4)cc3C(=O)N2CCC(=O)N(CC(N)=O)Cc2cccc(C(F)(F)F)c2)cc1` (centres unmarked): 98.8%.
Regarding `CN(C)CCCOc1ccc(C2Cc3ccc(NC(=O)CCC4CCCC4)cc3C(=O)N2Cc2ccc(C(=O)N(CC(N)=O)Cc3ccccc3)cc2)cc1` (centres unmarked), the inhibition at 170 µg/mL stood at 99.5%.
The same measure for `CN(C)CCN(CC(N)=O)C(=O)CCN1C(=O)c2cc(NC(=O)c3cc(C(F)(F)F)cc(C(F)(F)F)c3)ccc2CC1c1ccc2ccccc2n1` (centres unmarked): 98.2%; for `COc1cc(OC)cc(C2Cc3ccc(NC(=O)c4c(F)c(F)c(C)c(F)c4F)cc3C(=O)N2CCC(=O)N(CCN(C)C)CC(N)=O)c1` (centres unmarked): 98.2%.
With `Cc1cc(C)c(C(=O)C(=O)Nc2ccc3c(c2)C(=O)N(CCC(=O)N(CCN(C)C)CC(N)=O)C(c2ccc4ccccc4n2)C3)c(C)c1` (centres unmarked), the inhibition at 170 µg/mL worked out at 99.2%.
`CN(C)CCN(CC(N)=O)C(=O)c1ccc(CN2C(=O)c3cc(NC(=O)c4cccc(C(F)(F)F)c4F)ccc3CC2c2ccccc2)cc1` (centres unmarked): the inhibition at 170 µg/mL turned out to be 98.3%.
Under `CN(C)CCN(CC(N)=O)C(=O)CCN1C(=O)c2cc(NC(=O)COc3ccc4ccccc4c3)ccc2CC1c1ccc(F)c(F)c1` (centres unmarked) stands 99.2%; under `CN(C)CCCOc1ccc(C2Cc3ccc(NC(=O)Cc4cccc(C(F)(F)F)c4)cc3C(=O)N2CCC(=O)N(CC(N)=O)C2CC2)cc1` (centres unmarked), 99.9%; under `COc1cc(OC)cc(C2Cc3ccc(NC(=O)C4CCC(C)CC4)cc3C(=O)N2CCC(=O)N(CCN(C)C)CC(N)=O)c1` (centres unmarked), 99.8%.
As to `CC(CC(=O)Nc1ccc2c(c1)C(=O)N(Cc1ccc(C(=O)N(CC(N)=O)Cc3cccc(C(F)(F)F)c3)cc1)C(c1ccc(F)c(F)c1)C2)CC(C)(C)C` (centres unmarked), the inhibition at 170 µg/mL was 99.3%.
Under `CC1CCC(C(=O)Nc2ccc3c(c2)C(=O)N(CCC(=O)N(CCN(C)C)CC(N)=O)C(c2ccc(OCCCN(C)C)cc2)C3)CC1` (centres unmarked) stands 99%; under `CCCCCC(=O)Nc1ccc2c(c1)C(=O)N(CCC(=O)N(CC(N)=O)Cc1cccc(C(F)(F)F)c1)C(c1ccc(C(C)(C)C)cc1)C2` (centres unmarked), 99.4%; under `CN(C)CCCOc1ccc(C2Cc3ccc(NC(=O)CCC4CCCC4)cc3C(=O)N2CCC(=O)N(CC(N)=O)C2CC2)cc1` (centres unmarked), 98.2%.
The same measure for `CCCC(CCC)C(=O)Nc1ccc2c(c1)C(=O)N(Cc1ccc(C(=O)N(CCN(C)C)CC(N)=O)cc1)C(c1cc(OC)cc(OC)c1)C2` (centres unmarked): 99.3%; for `CN(C)CCN(CC(N)=O)C(=O)CCN1C(=O)c2cc(NC(=O)c3ccc(F)c(F)c3)ccc2CC1c1ccc(C(C)(C)C)cc1` (centres unmarked): 98.7%.
Under `CN(C)CCN(CC(N)=O)C(=O)c1ccc(CN2C(=O)c3cc(NC(=O)/C=C/c4ccccc4C(F)(F)F)ccc3CC2c2ccc(C(C)(C)C)cc2)cc1` (centres unmarked) stands 98.5%.
Regarding `NC(=O)CN(Cc1cccc(C(F)(F)F)c1)C(=O)CCN1C(=O)c2cc(NC(=O)CCC3CCCC3)ccc2CC1c1cccc(Oc2ccc(Cl)c(Cl)c2)c1` (centres unmarked), the inhibition at 170 µg/mL stood at 98.7%.
The same measure for `CN(C)CCN(CC(N)=O)C(=O)CCN1C(=O)c2cc(NC(=O)CCC3CCCC3)ccc2CC1c1cccc2ccccc12` (centres unmarked): 99.8%; for `CN(C)CCCOc1ccc(C2Cc3ccc(NC(=O)c4cccc(C(F)(F)F)c4F)cc3C(=O)N2Cc2ccc(C(=O)N(CC(N)=O)Cc3cccc(C(F)(F)F)c3)cc2)cc1` (centres unmarked): 99.6%.

For the origin of these results see US6452009B1, “4-unsubstituted dihydroisoquinolinone derivatives and combinatorial libraries thereof” (Lion Bioscience AG, priority 1999, dated 2002).
